This assay relates to Coptotermes formosanus Shiraki. The assay is described as follows: Test Example 1: termite-killing test on treated filter paper. Type of assay: in vivo. Conditions: mortality class; 1 ml of a 500 ppm solution on filter paper, seven days after inoculation, triplicate group of 10 insects. The protocol: A filter paper was spread in a glass dish having a diameter of 9 cm, onto which was dropped 1 ml of a 500 ppm solution of the ant controller of the present invention. Then, the filter paper was inoculated with Coptotermes formosanus Shiraki. Seven days after the inoculation, percentage of dead insects was investigated, from which mortality was calculated. The test was carried out with triplicate group of 10 insects.
For `O=C(NN=C(Cc1ccccc1)c1cccc(C(F)(F)F)c1)Nc1ccc(Cl)cc1` [Compound 42], the Termite-killing effect result is recorded as “A (100)”. For `O=C(NN=C(Cc1ccccc1)c1cccc(C(F)(F)F)c1)Nc1ccc(OC(F)(F)F)cc1` [Compound 43] the value was “A (100)”; for `N#Cc1ccc(CC(=NNC(=S)Nc2ccc(OC(F)(F)F)cc2)c2cccc(C(F)(F)F)c2)cc1` [Compound 45], “A (100)”; for `CN(C(=O)NN=C(Cc1ccccc1)c1ccccc1)c1ccc(Cl)cc1` [Compound 46], “A (100)”. For `CN(C(=O)NN=C(Cc1ccccc1)c1ccccc1)c1ccc(OC(F)(F)F)cc1` [Compound 47], the Termite-killing effect entry was “A (100)”.

As to `CC(C(=NNC(=O)Nc1ccc(Cl)cc1)c1ccccc1)c1ccccc1` (stereo not drawn) [Compound 48], the Termite-killing effect result is listed as “A (100)”. For `CC(C(=NNC(=O)Nc1ccc(Br)cc1)c1ccccc1)c1ccccc1` (stereo not drawn) [Compound 49] the value was “C (89-80)”; for `CC(C(=NNC(=O)Nc1ccc(OC(F)(F)F)cc1)c1ccccc1)c1ccccc1` (stereo not drawn) [Compound 51], “A (100)”. Turning to `CC(C(=NNC(=O)Nc1ccc(OC(F)(F)F)cc1)c1ccccc1)c1ccccc1` (stereo not drawn) [Compound 52], the Termite-killing effect entry was “A (100)”. Consider `CC(C(=NNC(=O)Nc1ccc(Cl)cc1)c1ccccc1)c1ccc(Cl)cc1` (stereo not drawn) [Compound 53], for which the Termite-killing effect entry is “B (99-90)”. For `CC(C(=NNC(=O)Nc1ccc(OC(F)(F)F)cc1)c1ccccc1)c1ccc(Cl)cc1` (stereo not drawn) [Compound 54] the value was “A (100)”.

As to `CC(C(=NNC(=O)Nc1ccc(Cl)cc1)c1cccc(Cl)c1)c1ccc(C#N)cc1` (stereo not drawn) [Compound 55], the Termite-killing effect result was “A (100)”.

On to `CC(C(=NNC(=O)Nc1ccc(OC(F)(F)F)cc1)c1cccc(Cl)c1)c1ccc(C#N)cc1` (stereo not drawn) [Compound 56], for which the Termite-killing effect entry is given as “A (100)”. In the case of `O=C(NN=C(c1ccccc1)C(O)c1ccccc1)Nc1ccc(Cl)cc1` (stereo not drawn) [Compound 57], the Termite-killing effect result is “D (79-50)”. For `O=C(NN=C(c1ccccc1)C(O)c1ccccc1)Nc1ccc(OC(F)(F)F)cc1` (stereo not drawn) [Compound 58] the value was “A (100)”. For `O=C(NN=C(c1ccccc1)C(O)c1ccc(Cl)cc1)Nc1ccc(Cl)cc1` (stereo not drawn) [Compound 59] the value was “C (89-80)”.

For the compound `O=C(NN=C(c1ccccc1)C(O)c1ccc(Cl)cc1)Nc1ccc(OC(F)(F)F)cc1` (stereo not drawn) [Compound 60], the Termite-killing effect result is on record as “C (89-80)”. For `N#Cc1ccc(CC(=NNC(=O)Nc2ccc([S+]([O-])C(F)(F)F)cc2)c2cccc(F)c2)cc1` (stereo not drawn) [Compound 77] the value was “A (100)”; for `N#Cc1ccc(CC(=NNC(=O)Nc2ccc(S(=O)(=O)C(F)(F)F)cc2)c2ccc(F)cc2)cc1` [Compound 78], “A (100)”. For `N#Cc1ccc(CC(=NNC(=O)Nc2ccc([S+]([O-])C(F)(F)F)cc2)c2cccc(Cl)c2)cc1` (stereo not drawn) [Compound 79] the value was “B (99-90)”; for `N#Cc1ccc(CC(=NNC(=O)Nc2ccc(SC(F)(F)F)cc2)c2cccc(C(F)(F)F)c2)cc1` [Compound 80], “A (100)”; for `N#Cc1ccc(CC(=NNC(=O)Nc2ccc([S+]([O-])C(F)(F)F)cc2)c2cccc(C(F)(F)F)c2)cc1` (stereo not drawn) [Compound 81], “A (100)”.

Consider `N#Cc1ccc(CC(=NNC(=O)Nc2ccc(OC(F)(F)F)cc2)c2cccc(C(F)(F)F)c2)cc1` [Compound 82], for which the Termite-killing effect result is on record as “B (99-90)”.

As to `N#Cc1ccc(CC(=NNC(=O)Nc2ccc(Cl)cc2)c2cccc(C(F)(F)F)c2)cc1` [Compound 83], the Termite-killing effect entry is “D (79-50)”. For `N#Cc1ccc(CC(NNC(=O)Nc2ccc(OC(F)(F)F)cc2)c2cccc(Cl)c2)cc1` (stereo not drawn) [Compound 91] the value was “A (100)”; for `N#Cc1ccc(CC(NNC(=O)Nc2ccc(SC(F)(F)F)cc2)c2cccc(Cl)c2)cc1` (stereo not drawn) [Compound 92], “A (100)”; for `N#Cc1ccc(CC(NNC(=O)Nc2ccc([S+]([O-])C(F)(F)F)cc2)c2cccc(Cl)c2)cc1` (stereo not drawn) [Compound 93], “D (79-50)”. For `N#Cc1ccc(CC(NNC(=O)Nc2ccc(S(=O)(=O)C(F)(F)F)cc2)c2cccc(Cl)c2)cc1` (stereo not drawn) [Compound 94] the value was “A (100)”. Turning to `N#Cc1ccc(CC(NNC(=O)Nc2ccc(OC(F)(F)F)cc2)c2cccc(Br)c2)cc1` (stereo not drawn) [Compound 95], the Termite-killing effect result was “A (100)”. Take `N#Cc1ccc(CC(NNC(=O)Nc2ccc(SC(F)(F)F)cc2)c2cccc(C(F)(F)F)c2)cc1` (stereo not drawn) [Compound 97]: the Termite-killing effect result is recorded as “A (100)”. `FC(F)(F)Oc1ccc(NC(=S)NNC(Cc2ccc(Cl)cc2)c2ccccc2)cc1` (stereo not drawn) [Compound 98]: the Termite-killing effect result was “A (100)”. As to `N#Cc1ccc(CC(NNC(=S)Nc2ccc(OC(F)(F)F)cc2)c2cccc(Cl)c2)cc1` (stereo not drawn) [Compound 99], the Termite-killing effect entry is reported as “A (100)”.

`N#Cc1ccc(CC(NNC(=S)Nc2ccc(OC(F)(F)F)cc2)c2cccc(C(F)(F)F)c2)cc1` (stereo not drawn) [Compound 100]: the Termite-killing effect entry was “A (100)”. For `CC(=O)N(NC(=O)Nc1ccc(OC(F)(F)F)cc1)C(Cc1ccc(C#N)cc1)c1cccc(Cl)c1` (stereo not drawn) [Compound 101] the value was “A (100)”. For `N#Cc1ccc(CC(c2cccc(Cl)c2)N(NC(=O)Nc2ccc(OC(F)(F)F)cc2)C(=O)c2ccccc2)cc1` (stereo not drawn) [Compound 102] the value was “A (100)”; for `CCNC(=O)N(NC(=O)Nc1ccc(OC(F)(F)F)cc1)C(Cc1ccc(C#N)cc1)c1cccc(Cl)c1` (stereo not drawn) [Compound 103], “A (100)”; for `O=C(NNC(Cc1ccc(F)cc1)c1ccccc1)Nc1ccc(OC(F)(F)F)cc1` (stereo not drawn) [Compound 109], “C (89-80)”. For `O=C(NNC(Cc1ccc(Br)cc1)c1ccccc1)Nc1ccc(Cl)cc1` (stereo not drawn) [Compound 110] the value was “B (99-90)”; for `O=C(NNC(Cc1ccc(Br)cc1)c1ccccc1)Nc1ccc(OC(F)(F)F)cc1` (stereo not drawn) [Compound 111], “D (79-50)”. As to `N#Cc1cccc(CC(NNC(=O)Nc2ccc(OC(F)(F)F)cc2)c2ccccc2)c1` (stereo not drawn) [Compound 112], the Termite-killing effect result is “A (100)”.

For `O=C(NNC(Cc1ccccc1[N+](=O)[O-])c1ccccc1)Nc1ccc(OC(F)(F)F)cc1` (stereo not drawn) [Compound 113], the Termite-killing effect entry is “A (100)”. For `N#Cc1ccc(CC(NNC(=O)Nc2ccc(OC(F)(F)F)cc2)c2cccc(F)c2)cc1` (stereo not drawn) [Compound 114] the value was “B (99-90)”; for `N#Cc1ccc(CC(NNC(=O)Nc2ccc(SC(F)(F)F)cc2)c2cccc(F)c2)cc1` (stereo not drawn) [Compound 115], “A (100)”. In the case of `N#Cc1ccc(CC(NNC(=O)Nc2ccc([S+]([O-])C(F)(F)F)cc2)c2cccc(F)c2)cc1` (stereo not drawn) [Compound 116], the Termite-killing effect result is reported as “B (99-90)”. As to `N#Cc1ccc(CC(NNC(=O)Nc2ccc([S+]([O-])C(F)(F)F)cc2)c2cccc(C(F)(F)F)c2)cc1` (stereo not drawn) [Compound 119], the Termite-killing effect result is given as “A (100)”. For `N#Cc1ccc(CC(NNC(=O)Nc2ccc(S(=O)(=O)C(F)(F)F)cc2)c2cccc(C(F)(F)F)c2)cc1` (stereo not drawn) [Compound 120] the value was “A (100)”; for `N#Cc1cccc(CC(NNC(=O)Nc2ccc(OC(F)(F)F)cc2)c2ccccc2)c1` (stereo not drawn) [Compound 121], “C (89-80)”; for `O=C(C=NN(Cc1ccccc1)c1ccccc1)Nc1ccc(OC(F)(F)F)cc1` [Compound 122], “D (79-50)”. As for `O=C(C=NN(Cc1ccc(Cl)cc1)c1ccccc1)Nc1ccc(OC(F)(F)F)cc1` [Compound 123], the Termite-killing effect entry is “A (100)”.

For the compound `N#Cc1ccc(CN(N=CC(=O)Nc2ccc(Cl)cc2)c2ccccc2)cc1` [Compound 124], the Termite-killing effect result is listed as “D (79-50)”. For `N#Cc1ccc(CN(N=CC(=O)Nc2ccc(OC(F)(F)F)cc2)c2ccccc2)cc1` [Compound 125] the value was “A (100)”; for `O=C(C=NN(Cc1ccc(Cl)cc1)c1cccc(Cl)c1)Nc1ccc(Cl)cc1` [Compound 126], “A (100)”. `O=C(C=NN(Cc1ccc(Cl)cc1)c1cccc(Cl)c1)Nc1ccc(OC(F)(F)F)cc1` [Compound 127]: the Termite-killing effect result is on record as “A (100)”. For `O=C(C=NN(Cc1ccc([N+](=O)[O-])cc1)c1cccc(Cl)c1)Nc1ccc(Cl)cc1` [Compound 128] the value was “A (100)”. Consider `O=C(C=NN(Cc1ccc([N+](=O)[O-])cc1)c1cccc(Cl)c1)Nc1ccc(OC(F)(F)F)cc1` [Compound 129], for which the Termite-killing effect entry is “A (100)”. For `N#Cc1ccc(CN(N=CC(=O)Nc2ccc(Cl)cc2)c2cccc(Cl)c2)cc1` [Compound 130] the value was “C (89-80)”; for `N#Cc1ccc(CN(N=CC(=O)Nc2ccc(OC(F)(F)F)cc2)c2cccc(Cl)c2)cc1` [Compound 131], “C (89-80)”. For `N#Cc1ccc(CN(N=CC(=O)Nc2ccc(SC(F)(F)F)cc2)c2cccc(Cl)c2)cc1` [Compound 132] the value was “A (100)”. For `N#Cc1ccc(CN(N=CC(=O)Nc2ccc([S+]([O-])C(F)(F)F)cc2)c2cccc(Cl)c2)cc1` (stereo not drawn) [Compound 133] the value was “A (100)”; for `N#Cc1ccc(CN(N=CC(=O)Nc2ccc(Cl)cc2)c2cccc(F)c2)cc1` [Compound 134], “A (100)”. In the case of `N#Cc1ccc(CN(N=CC(=O)Nc2ccc(OC(F)(F)F)cc2)c2cccc(F)c2)cc1` [Compound 135], the Termite-killing effect result is given as “B (99-90)”. Take `Cc1cccc(N(Cc2ccc(C#N)cc2)N=CC(=O)Nc2ccc(Cl)cc2)c1` [Compound 136]: the Termite-killing effect entry is listed as “A (100)”. For `Cc1cccc(N(Cc2ccc(C#N)cc2)N=CC(=O)Nc2ccc(OC(F)(F)F)cc2)c1` [Compound 137] the value was “A (100)”.

The record behind these values is US8361487B1, “Ant controllers and method for application thereof” (BASF Aktiengesellschaft, priority 1999, dated 2013).
